The numbers were not newly measured in patent EP3639895A1, “METHOD OF REDUCING PERSPIRATION” (priority 2018, dated 2020), which cites them from elsewhere.

In this data set the test system is Staphylococcus epidermidis. The following applies: 80% or greater reduction in growth of inoculum over 16 to 24 hours at 37°C.

In the case of `CCO` [ethanol], the “minimum inhibitory concentration (MIC)” value was “greater than 1 mg.ml^-1”.

For `CC(C)=CCCC(C)=CCCC(C)=CCO` [farnesol, 3,7,11-trimethyldodeca-2,6,10-trienol], the “minimum inhibitory concentration (MIC)” value is listed as “ca. 25 µg.ml^-1”.

For the molecule `Oc1cc(Cl)ccc1Oc1ccc(Cl)cc1Cl` [triclosan, 2',4,4'-trichloro,2-hydroxy-diphenyl ether], the “minimum inhibitory concentration (MIC)” value was 0.01 to 10 µg/mL.
